From US20020137929A1, “1 - (3-heterocyclylphenyl) isothiourea, -isourea, -guanidine and -amidine herbicidal agents” (Intellectual Property Department, BASF Aktiengesellschaft, priority 1998, published 2002)

Tests used:
[1] = tested on: AMBEL (Ragweed, Common); test: Postemergence herbicidal evaluation; type: in vivo, Ambrosia artemisifolia; details: for Herbicidal rating AMBEL: postemergence
Procedure, shortened: (§1)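 ~2-wk seedlings; postemergence spray, 40 psi; vehicle 1:1 acetone:water + 0.5% Tween 20; rate ≈0.0156–0.500 kg/ha; greenhouse hold; scored 4–5 wk after treatment, 0–9 scale vs control; repeat tests averaged.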

[2] = tested on: IPOHE (Morningglory, Ivyleaf); test: Postemergence herbicidal evaluation; type: in vivo, Ipomoea hederacea; details: for Herbicidal rating IPOHE: postemergence
Procedure, shortened: as §1

[3] = tested on: TRZAWR (Wheat, Winter, cv Riband); test: Postemergence herbicidal evaluation; type: in vivo, Triticum aestivum; details: for Herbicidal rating TRZAWR: postemergence
Procedure, shortened: as §1

[4] = tested on: ECHCG (Barnyardgrass); test: Postemergence herbicidal evaluation; type: in vivo, Echinochloa crus-galli; details: for Herbicidal rating ECHCG: postemergence
Procedure, shortened: as §1

[5] = tested on: ABUTH (Velvetleaf); test: Postemergence herbicidal evaluation; type: in vivo, Abutilon theophrasti; details: for Herbicidal rating ABUTH: postemergence
Procedure, shortened: as §1

[6] = tested on: SETVI (Foxtail, Green); test: Postemergence herbicidal evaluation; type: in vivo, Setaria viridis; details: for Herbicidal rating SETVI: postemergence
Procedure, shortened: as §1

[7] = tested on: GLXMAW (Soybean, Williams); test: Postemergence herbicidal evaluation; type: in vivo, Glycine max, (L.) Merr. cv Williams; details: for Herbicidal rating GLXMAW: postemergence
Procedure, shortened: as §1

[8] = tested on: ECHORC (Watergrass (Calif.)); test: Postemergence weed control under flooded paddy conditions; type: in vivo, Echinochloa oryzoides; details: postemergence weeds
Procedure, shortened: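 With weeds 3 to 5 cm tall and rice at the 1.5 to 2.5 leaf stage, containers were flooded and water held 1.5 to 3 cm above soil. Compounds in 50/50 v/v aqueous/acetone went into the flood water at about 0.0313 to 0.500 kg/ha a.i. Effects were visually rated 0–9 against controls after three to four weeks in the greenhouse.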

[9] = rate 0.0313 kg/ha, 3-4 weeks after treatment
[10] = rate 0.0625 kg/ha, 3-4 weeks after treatment
[11] = rate 0.1250 kg/ha, 3-4 weeks after treatment
[12] = rate 0.2500 kg/ha, 3-4 weeks after treatment

Compound: 2-{{2-Chloro-5-[3,6-dihydro-3-methyl-2,6-dioxo-4-(trifluoromethyl)-1(2H)-pyrimidinyl]-4-fluoro-phenyl}imino}-4-oxo-3,5-thiazolidenediacetic acid, 3-ethyl (2-propynyl) ester, (2:1) mixture with di-2-propynyl ester [Compound 58]
- Postemergence herbicidal rating AMBEL ([1]; Rate 0.0158 kg/ha): 9.0
- Postemergence herbicidal rating AMBEL ([1]; Rate 0.0315 kg/ha): 9.0
- Postemergence herbicidal rating AMBEL ([1]; Rate 0.0630 kg/ha): 9.0
- Postemergence herbicidal rating IPOHE ([2]; Rate 0.0158 kg/ha): 9.0
- Postemergence herbicidal rating IPOHE ([2]; Rate 0.0315 kg/ha): 9.0
- Postemergence herbicidal rating IPOHE ([2]; Rate 0.0630 kg/ha): 9.0
- Postemergence herbicidal rating TRZAWR ([3]; Rate 0.0158 kg/ha): 5.0
- Postemergence herbicidal rating TRZAWR ([3]; Rate 0.0315 kg/ha): 5.0
- Postemergence herbicidal rating TRZAWR ([3]; Rate 0.0630 kg/ha): 7.5
- Postemergence herbicidal rating ECHCG ([4]; Rate 0.0158 kg/ha): 7.0
- Postemergence herbicidal rating ECHCG ([4]; Rate 0.0315 kg/ha): 7.0
- Postemergence herbicidal rating ECHCG ([4]; Rate 0.0630 kg/ha): 9.0
- Postemergence herbicidal rating ABUTH ([5]; Rate 0.0158 kg/ha): 9.0
- Postemergence herbicidal rating ABUTH ([5]; Rate 0.0315 kg/ha): 9.0
- Postemergence herbicidal rating ABUTH ([5]; Rate 0.0630 kg/ha): 9.0
- Postemergence herbicidal rating SETVI ([6]; Rate 0.0158 kg/ha): 9.0
- Postemergence herbicidal rating SETVI ([6]; Rate 0.0315 kg/ha): 9.0
- Postemergence herbicidal rating SETVI ([6]; Rate 0.0630 kg/ha): 9.0
- Postemergence herbicidal rating GLXMAW ([7]; Rate 0.0158 kg/ha): 7.0
- Postemergence herbicidal rating GLXMAW ([7]; Rate 0.0315 kg/ha): 7.0
- Postemergence herbicidal rating GLXMAW ([7]; Rate 0.0630 kg/ha): 8.5
- Herbicidal rating ECHORC [8, 9]: 7.0
- Herbicidal rating ECHORC [8, 10]: 7.0
- Herbicidal rating ECHORC [8, 11]: 7.0
- Herbicidal rating ECHORC [8, 12]: 9.0

Compound: CCOC(=O)CN1C(=O)C(CC(=O)OC(C)C)SC1=Nc1cc(-n2c(=O)cc(C(F)(F)F)n(C)c2=O)c(F)cc1Cl (stereo not shown) [Compound 55, 2-{{2-Chloro-5-[3,6-dihydro-3-methyl-2,6-dioxo-4-(trifluoromethyl)-1(2H)-pyrimidinyl]-4-fluoro-phenyl}imino}-4-oxo-3,5-thiazolidinediacetic acid, 3-ethyl isopropyl ester]
- Postemergence herbicidal rating AMBEL ([1]; Rate 0.0158 kg/ha): 9.0
- Postemergence herbicidal rating AMBEL ([1]; Rate 0.0313 kg/ha): 9.0
- Postemergence herbicidal rating AMBEL ([1]; Rate 0.0625 kg/ha): 9.0
- Postemergence herbicidal rating AMBEL ([1]; Rate 0.1250 kg/ha): 9.0
- Postemergence herbicidal rating AMBEL ([1]; Rate 0.2500 kg/ha): 9.0
- Postemergence herbicidal rating IPOHE ([2]; Rate 0.0158 kg/ha): 9.0
- Postemergence herbicidal rating IPOHE ([2]; Rate 0.0313 kg/ha): 9.0
- Postemergence herbicidal rating IPOHE ([2]; Rate 0.0625 kg/ha): 9.0
- Postemergence herbicidal rating IPOHE ([2]; Rate 0.1250 kg/ha): 9.0
- Postemergence herbicidal rating IPOHE ([2]; Rate 0.2500 kg/ha): 9.0
- Postemergence herbicidal rating TRZAWR ([3]; Rate 0.0158 kg/ha): 5.5
- Postemergence herbicidal rating TRZAWR ([3]; Rate 0.0313 kg/ha): 6.8
- Postemergence herbicidal rating TRZAWR ([3]; Rate 0.0625 kg/ha): 7.5
- Postemergence herbicidal rating TRZAWR ([3]; Rate 0.1250 kg/ha): 7.5
- Postemergence herbicidal rating TRZAWR ([3]; Rate 0.2500 kg/ha): 7.5
- Postemergence herbicidal rating ECHCG ([4]; Rate 0.0158 kg/ha): 9.0
- Postemergence herbicidal rating ECHCG ([4]; Rate 0.0313 kg/ha): 9.0
- Postemergence herbicidal rating ECHCG ([4]; Rate 0.0625 kg/ha): 9.0
- Postemergence herbicidal rating ECHCG ([4]; Rate 0.1250 kg/ha): 9.0
- Postemergence herbicidal rating ECHCG ([4]; Rate 0.2500 kg/ha): 9.0
- Postemergence herbicidal rating ABUTH ([5]; Rate 0.0158 kg/ha): 8.0
- Postemergence herbicidal rating ABUTH ([5]; Rate 0.0313 kg/ha): 9.0
- Postemergence herbicidal rating ABUTH ([5]; Rate 0.0625 kg/ha): 9.0
- Postemergence herbicidal rating ABUTH ([5]; Rate 0.1250 kg/ha): 9.0
- Postemergence herbicidal rating ABUTH ([5]; Rate 0.2500 kg/ha): 9.0
- Postemergence herbicidal rating SETVI ([6]; Rate 0.0158 kg/ha): 9.0
- Postemergence herbicidal rating SETVI ([6]; Rate 0.0313 kg/ha): 9.0
- Postemergence herbicidal rating SETVI ([6]; Rate 0.0625 kg/ha): 9.0
- Postemergence herbicidal rating SETVI ([6]; Rate 0.1250 kg/ha): 9.0
- Postemergence herbicidal rating SETVI ([6]; Rate 0.2500 kg/ha): 9.0
- Postemergence herbicidal rating GLXMAW ([7]; Rate 0.0158 kg/ha): 8.0
- Postemergence herbicidal rating GLXMAW ([7]; Rate 0.0313 kg/ha): 8.2
- Postemergence herbicidal rating GLXMAW ([7]; Rate 0.0625 kg/ha): 8.0
- Postemergence herbicidal rating GLXMAW ([7]; Rate 0.1250 kg/ha): 8.3
- Postemergence herbicidal rating GLXMAW ([7]; Rate 0.2500 kg/ha): 8.0
- Herbicidal rating ECHORC [8, 9]: 7.0
- Herbicidal rating ECHORC [8, 10]: 7.0
- Herbicidal rating ECHORC [8, 11]: 7.0
- Herbicidal rating ECHORC [8, 12]: 7.0

Compound: C=CCN1C(=O)C(CC(=O)NS(=O)(=O)c2ccccc2)SC1=Nc1cc(-n2c(=O)cc(C(F)(F)F)n(C)c2=O)c(F)cc1Cl (stereo not shown) [Compound 101, 3-Allyl-2-{{2-chloro-5-[3,6-dihydro-3-methyl-2,6-dioxo-4-(trifluoromethyl)-1(2H)-pyrimidinyl]-4-fluorophenyl}imino}-4-oxo-N-(phenylsulfonyl)-5-thiazolidineacetamide]
- Herbicidal rating AMBEL ([1]; rate 0.0156 kg/ha): 9.0
- Herbicidal rating AMBEL ([1]; rate 0.0313 kg/ha): 7.0
- Herbicidal rating AMBEL ([1]; rate 0.0625 kg/ha): 9.0
- Herbicidal rating AMBEL ([1]; rate 0.1250 kg/ha): 9.0
- Herbicidal rating IPOHE ([2]; rate 0.0156 kg/ha): 4.0
- Herbicidal rating IPOHE ([2]; rate 0.0313 kg/ha): 9.0
- Herbicidal rating IPOHE ([2]; rate 0.0625 kg/ha): 9.0
- Herbicidal rating IPOHE ([2]; rate 0.1250 kg/ha): 9.0
- Herbicidal rating TRZAWR ([3]; rate 0.0156 kg/ha): 3.0
- Herbicidal rating TRZAWR ([3]; rate 0.0313 kg/ha): 3.5
- Herbicidal rating TRZAWR ([3]; rate 0.0625 kg/ha): 4.0
- Herbicidal rating TRZAWR ([3]; rate 0.1250 kg/ha): 5.0
- Herbicidal rating ECHCG ([4]; rate 0.0156 kg/ha): 1.0
- Herbicidal rating ECHCG ([4]; rate 0.0313 kg/ha): 2.0
- Herbicidal rating ECHCG ([4]; rate 0.0625 kg/ha): 3.0
- Herbicidal rating ECHCG ([4]; rate 0.1250 kg/ha): 5.0
- Herbicidal rating ABUTH ([5]; rate 0.0156 kg/ha): 3.0
- Herbicidal rating ABUTH ([5]; rate 0.0313 kg/ha): 7.0
- Herbicidal rating ABUTH ([5]; rate 0.0625 kg/ha): 9.0
- Herbicidal rating ABUTH ([5]; rate 0.1250 kg/ha): 9.0
- Herbicidal rating SETVI ([6]; rate 0.0156 kg/ha): 2.0
- Herbicidal rating SETVI ([6]; rate 0.0313 kg/ha): 1.0
- Herbicidal rating SETVI ([6]; rate 0.0625 kg/ha): 5.0
- Herbicidal rating SETVI ([6]; rate 0.1250 kg/ha): 5.0
- Herbicidal rating GLXMAW ([7]; rate 0.0156 kg/ha): 5.5
- Herbicidal rating GLXMAW ([7]; rate 0.0313 kg/ha): 5.5
- Herbicidal rating GLXMAW ([7]; rate 0.0625 kg/ha): 6.0
- Herbicidal rating GLXMAW ([7]; rate 0.1250 kg/ha): 6.5
- Herbicidal rating ECHORC ([8]; Rate 0.0313 kg/ha, rated 3 to 4 weeks after treatment): 0.0
- Herbicidal rating ECHORC ([8]; Rate 0.0625 kg/ha, rated 3 to 4 weeks after treatment): 0.0
- Herbicidal rating ECHORC ([8]; Rate 0.1250 kg/ha, rated 3 to 4 weeks after treatment): 0.0
- Herbicidal rating ECHORC ([8]; Rate 0.2500 kg/ha, rated 3 to 4 weeks after treatment): 0.0
- Herbicidal rating ECHORC ([8]; Rate 0.5000 kg/ha, rated 3 to 4 weeks after treatment): 0.0
